# Data reported in the supplement of paper PMC10307832.
# Columns and labels:
# Assay in all cases: relative viability (nuclei count vs DMSO), 5 days (fraction); higher = more cells survive
# [1] = compound: N#CC[C@H](C1CCCC1)n1cc(-c2ncnc3[nH]ccc23)cn1 [Ruxolitinib] + CS(=O)(=O)CCNCc1ccc(-c2ccc3ncnc(Nc4ccc(OCc5cccc(F)c5)c(Cl)c4)c3c2)o1 [Lapatinib] (partner 2 µM)
# Procedure, shortened: (§1)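 Relative viability is defined as nuclei in treated wells over nuclei in vehicle wells. Duplicate plates were run and medians reported. Lung cancer cell lines in 1536-well plates were dosed by pin tool one day after seeding, with one drug or with a fixed anchor-drug dose plus five library-drug doses (not always all listed) in √10 steps, and nuclei were counted after 5 days.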
# [2] = compound: N#CC[C@H](C1CCCC1)n1cc(-c2ncnc3[nH]ccc23)cn1 [Ruxolitinib] + COc1cc2c(Oc3ccc(NC(=O)C4(C(=O)Nc5ccc(F)cc5)CC4)cc3F)ccnc2cc1OCCCN1CCOCC1 [Foretinib] (partner 0.25 µM)
# Procedure, shortened: as §1
# [3] = compound: CS(=O)(=O)c1ccc(C(=O)Nc2ccc(Cl)c(-c3ccccn3)c2)c(Cl)c1 [Vismodegib] + CC(C)C[C@H](NC(=O)[C@H](Cc1ccccc1)NC(=O)c1cnccn1)B(O)O [Bortezomib] (partner 0.002 µM)
# Procedure, shortened: as §1
# [4] = compound: N#CC[C@H](C1CCCC1)n1cc(-c2ncnc3[nH]ccc23)cn1 [Ruxolitinib] + C[C@@H](Oc1cc(-c2cnn(C3CCNCC3)c2)cnc1N)c1c(Cl)ccc(F)c1Cl [Crizotinib] (partner 1 µM)
# Procedure, shortened: as §1
Cell Line,relative viability ([1]; first compound 0.08 µM),relative viability ([1]; first compound 0.253 µM),relative viability ([1]; first compound 0.8 µM),relative viability ([1]; first compound 2.53 µM),relative viability ([1]; first compound 8 µM),relative viability ([2]; first compound 0.253 µM),relative viability ([2]; first compound 0.8 µM),relative viability ([2]; first compound 2.53 µM),relative viability ([2]; first compound 8 µM),relative viability ([3]; first compound 0.08 µM),relative viability ([3]; first compound 0.253 µM),relative viability ([3]; first compound 0.8 µM),relative viability ([3]; first compound 2.53 µM),relative viability ([3]; first compound 8 µM),relative viability ([4]; first compound 0.253 µM),relative viability ([4]; first compound 0.8 µM),relative viability ([4]; first compound 2.53 µM),relative viability ([4]; first compound 8 µM),relative viability ([2]; first compound 0.08 µM),relative viability ([4]; first compound 0.08 µM)
LC-2-ad,0.989,0.878,0.868,0.773,0.34,0.743,0.977,0.746,0.64,1.06,0.987,0.981,0.947,0.871,0.485,0.49,0.474,0.465,–,–
Calu-6,1.09,1.09,1.17,1,0.647,0.884,0.99,0.81,0.523,0.969,1.03,1.02,1.05,0.987,0.676,1,0.711,0.399,0.936,0.797
NCI-H2126,0.907,0.776,0.837,0.874,0.878,1.27,1.2,1.12,1.16,1.08,1.09,1.1,1.14,1.15,1.11,1.02,1.03,0.984,1.09,0.996
NCI-H647,1.11,1.09,1.19,0.651,1.02,1.27,1.31,1.19,1.08,1.01,0.925,1.12,1.05,1.1,1.12,1.13,0.852,0.524,1.08,1.18
NCI-H322M,0.638,0.68,0.67,0.687,0.873,0.99,1.18,1.22,1.43,1.25,1.12,1.22,1.23,1.13,1.27,1.01,1.1,1.09,0.964,0.9
NCI-H1993,0.821,0.696,0.977,0.863,0.78,0.698,0.821,0.857,0.817,1.03,1.24,0.983,1.05,1.08,0.801,0.873,0.61,0.935,0.752,0.785
A-427,0.875,1.14,1.09,1.11,0.967,1.1,1.06,0.918,0.988,0.991,0.945,0.856,0.968,1.09,1.07,0.867,0.66,0.789,0.992,0.843
NCI-H2347,0.825,0.964,0.912,0.836,0.734,0.84,0.856,0.769,1.06,1,0.9,–,0.969,0.968,0.586,0.764,0.67,0.651,–,0.665
